According to BindingDB's records for doi:10.1021/jm00060a006 (Paris Diderot University, 1993):

Columns and labels:
[1] = Inhibition of PAF-induced rabbit platelet aggregation
[2] = Inhibition of [3H]PAF binding to rabbit platelet membrane

COc1cc(C(=O)N2CCN(C(=O)c3cc(OC)c(OC)c(OC)c3)CC2)cc(OC)c1OC
IC50 [1]: 1780 nM

C[C@@H]1C(=O)O[C@H]2[C@H](O)[C@@]34[C@H]5C[C@@H](C(C)(C)C)[C@]36[C@@H](OC(=O)[C@@H]6O)O[C@@]4(C(=O)O5)[C@@]12O
EC50 [2]: 180 nM | IC50 [1]: 740 nM

COc1cc(N2CCN(c3cc(OC)c(OC)c(OC)c3)CC2)cc(OC)c1OC [1,4-Bis-(3,4,5-trimethoxy-phenyl)-piperazine]
IC50 [1]: 12500 nM

COc1cc(C(=O)N2CCN(C(=O)c3cc(OC)c(OC)c(OC)c3)C(COC(=O)C(C)(C)C)C2)cc(OC)c1OC (stereo unspecified) [2,2-Dimethyl-propionic acid 1,4-bis-(3,4,5-trimethoxy-benzoyl)-piperazin-2-ylmethyl ester]
EC50 [2]: 300 nM | IC50 [1]: 100 nM

COc1cc(C(=O)N2CCN(C(=O)c3cc(OC)c(OC)c(OC)c3)C(COC(=O)c3ccccc3Cl)C2)cc(OC)c1OC (stereo unspecified) [2-Chloro-benzoic acid 1,4-bis-(3,4,5-trimethoxy-benzoyl)-piperazin-2-ylmethyl ester]
EC50 [2]: 450 nM | IC50 [1]: 170 nM

CCC(CC)C(=O)OCC1CN(Cc2cc(OC)c(OC)c(OC)c2)CCN1Cc1cc(OC)c(OC)c(OC)c1 (stereo unspecified) [2-Ethyl-butyric acid 1,4-bis-(3,4,5-trimethoxy-benzyl)-piperazin-2-ylmethyl ester]
IC50 [1]: 2700 nM

COc1cc(C(=O)N2CCN(C(=O)c3cc(OC)c(OC)c(OC)c3)C(COC(=O)CC(C)(C)C)C2)cc(OC)c1OC (stereo unspecified) [3,3-Dimethyl-butyric acid 1,4-bis-(3,4,5-trimethoxy-benzoyl)-piperazin-2-ylmethyl ester]
IC50 [1]: 120 nM

CCC(C)(C)NC(=O)OCC1CN(C(=O)c2cc(OC)c(OC)c(OC)c2)CCN1C(=O)c1cc(OC)c(OC)c(OC)c1 (stereo unspecified) [(1,1-Dimethyl-propyl)-carbamic acid 1,4-bis-(3,4,5-trimethoxy-benzoyl)-piperazin-2-ylmethyl ester]
IC50 [1]: 320 nM

COc1cc(C(=O)N2CCN(C(=O)c3cc(OC)c(OC)c(OC)c3)C(COC(=O)NC(C)C(C)(C)C)C2)cc(OC)c1OC (stereo unspecified) [(1,2,2-Trimethyl-propyl)-carbamic acid 1,4-bis-(3,4,5-trimethoxy-benzoyl)-piperazin-2-ylmethyl ester]
IC50 [1]: 170 nM

COc1cc(C(=O)N2CCN(C(=O)c3cc(OC)c(OC)c(OC)c3)C(COC(=O)NC(C)C(C)C)C2)cc(OC)c1OC (stereo unspecified) [(1,2-Dimethyl-propyl)-carbamic acid 1,4-bis-(3,4,5-trimethoxy-benzoyl)-piperazin-2-ylmethyl ester]
EC50 [2]: 70 nM | IC50 [1]: 80 nM

COc1cc(C(=O)N2CCN(C(=O)c3cc(OC)c(OC)c(OC)c3)C(COC(=O)NC(C)CC(C)C)C2)cc(OC)c1OC (stereo unspecified) [(1,3-Dimethyl-butyl)-carbamic acid 1,4-bis-(3,4,5-trimethoxy-benzoyl)-piperazin-2-ylmethyl ester]
EC50 [2]: 180 nM | IC50 [1]: 280 nM

CCCN(CCC)C(=O)OCC1CN(C(=O)c2cc(OC)c(OC)c(OC)c2)CCN1C(=O)c1cc(OC)c(OC)c(OC)c1 (stereo unspecified) [(1,4-bis(3,4,5-trimethoxybenzoyl)piperazin-2-yl)methyl dipropylcarbamate]
EC50 [2]: 680 nM | IC50 [1]: 380 nM

CCC(CC)NC(=O)OCC1CN(C(=O)c2cc(OC)c(OC)c(OC)c2)CCN1C(=O)c1cc(OC)c(OC)c(OC)c1 (stereo unspecified) [(1-Ethyl-propyl)-carbamic acid 1,4-bis-(3,4,5-trimethoxy-benzoyl)-piperazin-2-ylmethyl ester]
IC50 [1]: 130 nM

CCCC(C)NC(=O)OCC1CN(C(=O)c2cc(OC)c(OC)c(OC)c2)CCN1C(=O)c1cc(OC)c(OC)c(OC)c1 (stereo unspecified) [(1-Methyl-butyl)-carbamic acid 1,4-bis-(3,4,5-trimethoxy-benzoyl)-piperazin-2-ylmethyl ester]
IC50 [1]: 100 nM

CCCCC(CC)CNC(=O)OCC1CN(C(=O)c2cc(OC)c(OC)c(OC)c2)CCN1C(=O)c1cc(OC)c(OC)c(OC)c1 (stereo unspecified) [(2-Ethyl-hexyl)-carbamic acid 1,4-bis-(3,4,5-trimethoxy-benzoyl)-piperazin-2-ylmethyl ester]
IC50 [1]: 3900 nM

CCC(C)CNC(=O)OCC1CN(C(=O)c2cc(OC)c(OC)c(OC)c2)CCN1C(=O)c1cc(OC)c(OC)c(OC)c1 (stereo unspecified) [(2-Methyl-butyl)-carbamic acid 1,4-bis-(3,4,5-trimethoxy-benzoyl)-piperazin-2-ylmethyl ester]
IC50 [1]: 470 nM

COc1cc(NC(=O)OCC2CN(C(=O)c3cc(OC)c(OC)c(OC)c3)CCN2C(=O)c2cc(OC)c(OC)c(OC)c2)cc(OC)c1OC (stereo unspecified) [(3,4,5-Trimethoxy-phenyl)-carbamic acid 1,4-bis-(3,4,5-trimethoxy-benzoyl)-piperazin-2-ylmethyl ester]
IC50 [1]: 13800 nM

COc1cc(C(=O)N2CCN(C(=O)c3cc(OC)c(OC)c(OC)c3)C(COC(=O)NCCC(C)C)C2)cc(OC)c1OC (stereo unspecified) [(3-Methyl-butyl)-carbamic acid 1,4-bis-(3,4,5-trimethoxy-benzoyl)-piperazin-2-ylmethyl ester]
IC50 [1]: 140 nM

COc1cc(C(=O)N2CCN(C(=O)c3cc(OC)c(OC)c(OC)c3)C(COC(=O)COc3ccc(Cl)cc3)C2)cc(OC)c1OC (stereo unspecified) [(4-Chloro-phenoxy)-acetic acid 1,4-bis-(3,4,5-trimethoxy-benzoyl)-piperazin-2-ylmethyl ester]
IC50 [1]: 5000 nM

COc1cc(C(=O)N2CCN(C(=O)c3cc(OC)c(OC)c(OC)c3)C(COC(=O)COc3ccc(F)cc3)C2)cc(OC)c1OC (stereo unspecified) [(4-Fluoro-phenoxy)-acetic acid 1,4-bis-(3,4,5-trimethoxy-benzoyl)-piperazin-2-ylmethyl ester]
IC50 [1]: 10300 nM

COc1cc(C(=O)N2CCN(C(=O)c3cc(OC)c(OC)c(OC)c3)C(COC(C)=O)C2)cc(OC)c1OC (stereo unspecified) [Acetic acid 1,4-bis-(3,4,5-trimethoxy-benzoyl)-piperazin-2-ylmethyl ester]
EC50 [2]: 400 nM | IC50 [1]: 430 nM

CCCCNC(=O)OCC1CN(C(=O)c2cc(OC)c(OC)c(OC)c2)CCN1C(=O)c1cc(OC)c(OC)c(OC)c1 (stereo unspecified) [Butyl-carbamic acid 1,4-bis-(3,4,5-trimethoxy-benzoyl)-piperazin-2-ylmethyl ester]
EC50 [2]: 700 nM | IC50 [1]: 240 nM

CCCC(=O)OCC1CN(C(=O)c2cc(OC)c(OC)c(OC)c2)CCN1C(=O)c1cc(OC)c(OC)c(OC)c1 (stereo unspecified) [Butyric acid 1,4-bis-(3,4,5-trimethoxy-benzoyl)-piperazin-2-ylmethyl ester]
IC50 [1]: 420 nM

COc1cc(C(=O)N2CCN(C(=O)c3cc(OC)c(OC)c(OC)c3)C(COC(=O)C3CCCCC3)C2)cc(OC)c1OC (stereo unspecified) [Cyclohexanecarboxylic acid 1,4-bis-(3,4,5-trimethoxy-benzoyl)-piperazin-2-ylmethyl ester]
IC50 [1]: 290 nM

CCCCCCCCCC(=O)OCC1CN(C(=O)c2cc(OC)c(OC)c(OC)c2)CCN1C(=O)c1cc(OC)c(OC)c(OC)c1 (stereo unspecified) [Decanoic acid 1,4-bis-(3,4,5-trimethoxy-benzoyl)-piperazin-2-ylmethyl ester]
IC50 [1]: 2820 nM

CCCCN(CCCC)C(=O)OCC1CN(C(=O)c2cc(OC)c(OC)c(OC)c2)CCN1C(=O)c1cc(OC)c(OC)c(OC)c1 (stereo unspecified) [Dibutyl-carbamic acid 1,4-bis-(3,4,5-trimethoxy-benzoyl)-piperazin-2-ylmethyl ester]
IC50 [1]: 1250 nM

CCN(CC)C(=O)OCC1CN(C(=O)c2cc(OC)c(OC)c(OC)c2)CCN1C(=O)c1cc(OC)c(OC)c(OC)c1 (stereo unspecified) [Diethyl-carbamic acid 1,4-bis-(3,4,5-trimethoxy-benzoyl)-piperazin-2-ylmethyl ester]
IC50 [1]: 25800 nM

CCCCCN(CCCCC)C(=O)OCC1CN(C(=O)c2cc(OC)c(OC)c(OC)c2)CCN1C(=O)c1cc(OC)c(OC)c(OC)c1 (stereo unspecified) [Dipentyl-carbamic acid 1,4-bis-(3,4,5-trimethoxy-benzoyl)-piperazin-2-ylmethyl ester]
IC50 [1]: 11400 nM

CCCCCC(=O)OCC1CN(C(=O)c2cc(OC)c(OC)c(OC)c2)CCN1C(=O)c1cc(OC)c(OC)c(OC)c1 (stereo unspecified) [Hexanoic acid 1,4-bis-(3,4,5-trimethoxy-benzoyl)-piperazin-2-ylmethyl ester]
IC50 [1]: 290 nM

CCCCCCCCCCCCCCCCCC(=O)OCC1CN(C(=O)c2cc(OC)c(OC)c(OC)c2)CCN1C(=O)c1cc(OC)c(OC)c(OC)c1 (stereo unspecified) [Octadecanoic acid 1,4-bis-(3,4,5-trimethoxy-benzoyl)-piperazin-2-ylmethyl ester]
IC50 [1]: 45000 nM

CCCCCCCC(=O)OCC1CN(C(=O)c2cc(OC)c(OC)c(OC)c2)CCN1C(=O)c1cc(OC)c(OC)c(OC)c1 (stereo unspecified) [Octanoic acid 1,4-bis-(3,4,5-trimethoxy-benzoyl)-piperazin-2-ylmethyl ester]
IC50 [1]: 310 nM

CCCCCCCCNC(=O)OCC1CN(C(=O)c2cc(OC)c(OC)c(OC)c2)CCN1C(=O)c1cc(OC)c(OC)c(OC)c1 (stereo unspecified) [Octyl-carbamic acid 1,4-bis-(3,4,5-trimethoxy-benzoyl)-piperazin-2-ylmethyl ester]
IC50 [1]: 370 nM

COc1cc(C(=O)N2CCN(C(=O)c3cc(OC)c(OC)c(OC)c3)C(COC(=O)NC(C)(C)C)C2)cc(OC)c1OC (stereo unspecified) [tert-Butyl-carbamic acid 1,4-bis-(3,4,5-trimethoxy-benzoyl)-piperazin-2-ylmethyl ester]
IC50 [1]: 130 nM
